Results reported in patent US8901305B2, “Aryl lactam kinase inhibitors” (Bristol-Myers Squibb Company, priority 2012, dated 2014).

Key:
GST-Xa-hAAK1 = biological target: T1, GST-Xa-hAAK1 (Homo sapiens, UniProt Q2M2I8); experiment: AAK1 kinase assay; type: biochemical; conditions: ATP 22 μM, 3 hours at room temperature
T1 construct: made in house
How it was run: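 Bacterially expressed GST-Xa-hAAK1 was combined with substrates and compounds (eleven concentrations) and incubated 3 h at room temperature, then stopped with EDTA. Fluorescent substrate and phosphorylated product were separated electrophoretically (Caliper LabChip), and IC50 values came from non-linear regression.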

[1] = biological target: T2, AAK1 (full length human) with AP2M1 in HEK293F cells (Homo sapiens, UniProt Q2M2I8); experiment: HEK281 cell-based assay (phospho-mu2 Western blot in transfected HEK293F cells); conditions: 3 hours, inhibition of mu2 phosphorylation
T2 construct: expressed in transfected cells; host or cells: HEK293F
Method: HEK293F cells were cultured in media containing DMEM (Gibco, cat. #11965), 10% FBS (SAFC Biosciences, cat. #12103C), 1×GPS (glutamine, penicillin and streptomycin). On day one, cells were plated on a 10 cm dish so that they are ˜80% confluent at time of transfection. Roughly 12 million cells were in a 10 cm dish at time of transfection. On day two, each dish was transfected with 48 ug DNA and 144 ul Lipofectamine 2000 (Invitrogen, cat. #11668-019). The DNA was comprised of a mixture (per 10 cm dish) containing 3 ug AAK1/HA/pIRES (full length human, NCBI accession no. NP_055726.2), 45 μg Flag/AP2MI/pcDNA (full length human), and 1.5 ml OPTI-MEM. The Lipofectamine 2000 is made up of a mixture (per 10 cm dish) containing 144 μl Lipofectamine 2000 and 1.5 ml OPTI-MEM. Each mixture was transferred to individual 15 ml tubes and incubated at RT for 5 minutes, and then the two mixes were combined and incubated at RT for 20 minutes. Growth media was then aspirated from each 10 cm plate and replaced with 10 ml of DMEM+10% FBS (no GPS). Finally, 3 ml DNA/Lipofectamine mix was added to each 10 cm dish and mix gently followed by incubate of plate overnight at 37° C. and 5% CO2.
On day three, compounds were diluted in 100% DMSO at 1000× final concentration, followed by 3-fold serial dilutions for a total of 5 concentrations tested. Four compounds were tested per 10 cm dish. One ul of each compound dilution was then pipetted into a deep-well, 96-well plate, followed by addition of 500 μl DMEM+0.5% FBS into each well for a 2× final concentration of each compound. Cells were resuspended in a 10 cm dish by simple pipetting (HEK293 cells come off the plate that easy at this point) and then transferred to a 50 ml conical tube and pelleted by centrifugation at 1000 rpm for 5 min. Cell pellets were then resuspended in 2.75 ml DMEM+0.5% FBS per 10 cm dish and 100 μl of cell suspension transferred into each well of 96-well TC plate. Finally, 100 μl of 2× compound diluted in DMEM+0.5% FBS was then added into wells containing cell suspension for a 1× final concentration. Plates were then incubated at 37° C. and 5% CO2 for 3 hours followed by transferring of cell suspensions from each well into 12-tube PCR strips. The PCR strips were spun in a tip rack at 1000 rpm for 5 minutes to pellet cells and media was then removed by pipetting without disturbing the cell pellet.
To prepare for Western Blot analysis, cell pellets were resuspend in 40 ul 1×LDS-PAGE sample buffer (Invitrogen, cat. # NP0008)+2× Halt phosphatase and protease inhibitor cocktail (Thermo Scientific, cat. #1861284), followed by sonicating each with microtip sonicator set at 5 for 8-10 seconds. Five ul of 10× NuPage Sample Reducing Agent (with […]) was to each sample followed by heat denaturing at 70 C for 10 min on PCR machine. A total of 10 μl per sample was loaded into each lane of a 4-20% Tris-Glycine Criterion 26-well gel (Biorad, cat. #345-0034) for the phospho-mu2 blot and 10 μl per lane in a 4-12% Bis-Tris (+MES buffer) NuPAGE 26-well gel (Invitrogen, cat. # WG1403BX10) for the mu2 blot. For controls, 2 ng of phospho-mu2 or 20 ng mu2/Flag proteins were loaded in the last well of each gel. After SDS-PAGE, samples on each gel were transferred to PVDF membrane using an iBlot and membranes were blocked for one hour in TBST+5% milk, followed by wash 3× for 5-10 min with TBST. Criterion gels were probed with rabbit anti-phospho-mu2 (1:5000; a rabbit polyclonal antibody produced by New England Peptide and affinity purified at Lexicon) in TBST+5% BSA, whereas, NuPAGE gels were probed with mouse anti-Flag (1:500; Sigma, cat. # F1804) in TBST+5% milk, and these primary antibodies were incubated overnight at 4° C. on a rocker. […]

T2 sequence (Q2M2I8 whole entry): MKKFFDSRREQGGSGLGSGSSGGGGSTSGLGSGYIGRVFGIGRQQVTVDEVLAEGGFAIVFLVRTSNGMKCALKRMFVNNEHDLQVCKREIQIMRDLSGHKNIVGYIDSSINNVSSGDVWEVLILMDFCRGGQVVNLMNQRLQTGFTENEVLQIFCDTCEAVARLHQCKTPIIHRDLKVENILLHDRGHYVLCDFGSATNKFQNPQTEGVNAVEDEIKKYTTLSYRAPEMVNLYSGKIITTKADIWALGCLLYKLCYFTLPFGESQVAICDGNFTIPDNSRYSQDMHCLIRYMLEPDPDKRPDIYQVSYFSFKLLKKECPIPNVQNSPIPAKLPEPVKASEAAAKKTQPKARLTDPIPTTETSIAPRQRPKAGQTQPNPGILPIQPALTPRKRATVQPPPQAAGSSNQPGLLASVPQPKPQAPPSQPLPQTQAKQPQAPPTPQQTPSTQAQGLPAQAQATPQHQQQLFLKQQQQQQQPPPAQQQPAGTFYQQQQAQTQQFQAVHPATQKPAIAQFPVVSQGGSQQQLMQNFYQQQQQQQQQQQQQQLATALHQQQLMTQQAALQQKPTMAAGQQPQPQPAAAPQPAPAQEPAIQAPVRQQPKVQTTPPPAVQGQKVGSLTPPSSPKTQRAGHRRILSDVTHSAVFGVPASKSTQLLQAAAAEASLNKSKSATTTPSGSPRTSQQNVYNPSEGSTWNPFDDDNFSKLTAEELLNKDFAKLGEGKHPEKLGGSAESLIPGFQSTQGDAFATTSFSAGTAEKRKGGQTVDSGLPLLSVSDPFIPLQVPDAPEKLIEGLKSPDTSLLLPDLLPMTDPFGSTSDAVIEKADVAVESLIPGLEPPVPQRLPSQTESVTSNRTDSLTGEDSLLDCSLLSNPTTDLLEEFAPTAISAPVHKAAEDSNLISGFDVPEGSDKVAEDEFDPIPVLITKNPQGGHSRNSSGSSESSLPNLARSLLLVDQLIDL
T1 sequence (Q2M2I8 whole entry): as above

| Structure (SMILES) | IC50 (GST-Xa-hAAK1) | IC50 ([1]; given as IC50 range) | IC50 [1] | IC50 (GST-Xa-hAAK1; given as IC50 range) |
| --- | --- | --- | --- | --- |
| Cc1nccc2c1c(=O)n(C)c1cc(OCC(C)(N)CC(C)C)ccc21 (stereo not shown) [Example 32, 8-((2-amino-2,4-dimethylpentyl)oxy)-4,6-dimethylbenzo[c][2,7]naphthyridin-5(6H)-one] | 3.9 nM | 10 to 100 nM |  |  |
| Cc1nccc2c1c(=O)n(C)c1cc(OCC(C)(N)CC(C)C)c(Cl)cc21 (stereo not shown) [Example 41, 8-((2-amino-2,4-dimethylpentyl)oxy)-9-chloro-4,6-dimethylbenzo[c][2,7]naphthyridin-5(6H)-one] | 0.64 nM |  | 3.3 nM |  |
| CC(C)C[C@H](N)COc1cc2c(cc1C(C)C)c1ccncc1c(=O)n2C [Example 47, (S)-8-(2-amino-4-methylpentyloxy)-9-isopropyl-6-methylbenzo[c][2,7]naphthyridin-5(6H)-one] | 4.5 nM | 10 to 100 nM |  |  |
| Cc1nccc2c1c(=O)n(C)c1cc(OC[C@@H](N)CC(C)C)c(C#N)cc21 [Example 64, (S)-8-(2-amino-4-methylpentyloxy)-4,6-dimethyl-5-oxo-5,6-dihydrobenzo[c][2,7]naphthyridine-9-carbonitrile] |  |  | 0.6 nM | < 1 nM |
| Cc1nccc2c1c(=O)n(C)c1cc(OC[C@H](N)CC(C)C)c(C#N)cc21 [Example 78, (R)-8-(2-amino-4-methylpentyloxy)-4,6-dimethyl-5-oxo-5,6-dihydrobenzo[c][2,7]naphthyridine-9-carbonitrile] | 0.8 nM | 1 to 10 nM |  |  |
| CC(C)CC(C)(N)COc1ccc2c3c(F)cncc3c(=O)n(C)c2c1 (stereo not shown) [Example 97, 8-(2-amino-2,4-dimethylpentyloxy)-1-fluoro-6-methylbenzo[c][2,7]naphthyridin-5(6H)-one] |  | 10 to 100 nM |  | 1 to 10 nM |
| Cc1nccc2c1c(=O)[nH]c1cc(OC[C@@H](N)CC(C)C)c(F)cc12 [Example 101, (S)-8-(2-amino-4-methylpentyloxy)-9-fluoro-4-methylbenzo[c][2,7]naphthyridin-5(6H)-one] |  |  | 5.2 nM | 1 to 10 nM |
| Cc1nccc2c1c(=O)[nH]c1c(F)c(OC[C@@H](N)CC(C)C)c(Cl)cc12 [Example 103, (S)-8-(2-amino-4-methylpentyloxy)-9-chloro-7-fluoro-4-methylbenzo[c][2,7]naphthyridin-5(6H)-one] |  | 10 to 100 nM |  | 1 to 10 nM |

Other lines, results leading:

| IC50 (GST-Xa-hAAK1) | IC50 ([1]; given as IC50 range) | IC50 [1] | IC50 (GST-Xa-hAAK1; given as IC50 range) | Structure (SMILES) |
| --- | --- | --- | --- | --- |
|  |  | 3.1 nM | 1 to 10 nM | CCc1cc2c3ccncc3c(=O)n(C)c2cc1OC[C@@H](N)CC(C)C [Example 46, (S)-8-(2-amino-4-methylpentyloxy)-9-ethyl-6-methylbenzo[c][2,7]naphthyridin-5(6H)-one] |
|  |  | 1.8 nM | 1 to 10 nM | CC(C)C[C@H](N)COc1cc2c(cc1-c1cnco1)c1ccncc1c(=O)n2C [Example 48, (S)-8-(2-amino-4-methylpentyloxy)-6-methyl-9-(oxazol-5-yl)benzo[c][2,7]naphthyridin-5(6H)-one] |
|  |  | 2.4 nM | 1 to 10 nM | CC(C)C[C@H](N)COc1cc2c(cc1F)c1ccnc(N)c1c(=O)n2C [Example 52, (S)-4-amino-8-(2-amino-4-methylpentyloxy)-9-fluoro-6-methylbenzo[c][2,7]naphthyridin-5(6H)-one] |
|  | 1 to 10 nM |  | 1 to 10 nM | Cn1c(=O)c2cnccc2c2cc(C#N)c(OCC(N)CCC(F)(F)F)cc21 (stereo not shown) [Example 56, 8-((2-amino-5,5,5-trifluoropentyl)oxy)-6-methyl-5-oxo-5,6 dihydrobenzo[c][2,7]naphthyridine-9-carbonitrile] |
|  | 1 to 10 nM |  | 1 to 10 nM | Cc1nccc2c1c(=O)n(C)c1cc(OC[C@@H](N)CC(C)C)c(Cl)cc21 [Example 62, (S)-8-((2-amino-4-methylpentyl)oxy)-9-chloro-4,6-dimethylbenzo[c][2,7]naphthyridin-5(6H)-one] |
|  | 1 to 10 nM |  | 1 to 10 nM | Cc1cc2c3ccnc(C)c3c(=O)n(C)c2cc1OC[C@@H](N)CC(C)C [Example 63, (S)-8-(2-amino-4-methylpentyloxy)-4,6,9-trimethylbenzo[c][2,7]naphthyridin-5(6H)-one] |
|  | 1 to 10 nM |  | 1 to 10 nM | Cc1nccc2c1c(=O)n(C)c1cc(OC[C@@H](N)CC(C)C)c(F)cc21 [Example 70, (S)-8-(2-amino-4-methylpentyloxy)-9-fluoro-4,6-dimethylbenzo[c][2,7]naphthyridin-5(6H)-one] |
|  | < 1 nM |  | < 1 nM | Cc1nccc2c1c(=O)n(C)c1cc(OC[C@@H](N)CC(C)C)c(-c3cnco3)cc21 [Example 72, (S)-8-(2-amino-4-methylpentyloxy)-4,6-dimethyl-9-(oxazol-5-yl)benzo[c][2,7]naphthyridin-5(6H)-one] |
|  | 1 to 10 nM |  | 1 to 10 nM | Cc1nccc2c1c(=O)n(C)c1cc(OCC(N)CCC(F)(F)F)c(C#N)cc21 (stereo not shown) [Example 73, 8-(2-amino-5,5,5-trifluoropentyloxy)-4,6-dimethyl-5-oxo-5,6-dihydrobenzo[c][2,7]naphthyridine-9-carbonitrile] |
|  | 1 to 10 nM |  | 1 to 10 nM | Cc1nccc2c1c(=O)n(C)c1cc(OC[C@@H](N)CC(C)C)c(C(F)(F)F)cc21 [Example 75, (S)-8-(2-amino-4-methylpentyloxy)-4,6-dimethyl-9-(trifluoromethyl)benzo[c][2,7]naphthyridin-5(6H)-one] |
|  | 1 to 10 nM |  | 1 to 10 nM | Cc1nccc2c1c(=O)n(C)c1cc(OC[C@@H](N)CC(C)C)c(-c3cncs3)cc21 [Example 83, (S)-8-(2-amino-4-methylpentyloxy)-4,6-dimethyl-9-(thiazol-5-yl)benzo[c][2,7]naphthyridin-5(6H)-one] |
|  | < 1 nM |  | < 1 nM | Cc1nccc2c1c(=O)n(C)c1cc(OC[C@@H](N)CC=C(F)F)c(C#N)cc21 [Example 106, (S)-8-((2-amino-5,5-difluoropent-4-en-1-yl)oxy)-4,6-dimethyl-5-oxo-5,6-dihydrobenzo[c][2,7]naphthyridine-9-carbonitrile] |
